Data published in patent US10906909B2, “Treatment of cognitive and mood symptoms in neurodegenerative and neuropsychiatric disorders with ALPHA5-containing GABAA receptor agonists” (UWM Research Foundation, Inc., priority 2016, dated 2021).
Entries after “also recorded” stand apart in the source; their conditions may differ.

Experiments:
[1] = tested on: Female Swiss Webster mice; test: Rotarod sensorimotor / locomotor coordination; type: in vivo, mouse; conditions: 40 mg/kg oral gavage; 15 rpm, 3 min; 10, 30, 60 min after dosing
Method: Female Swiss Webster mice (10 weeks of age) from Charles River Laboratory, WIL, MA were used for the experiments. The animals were housed under specific pathogen-free conditions, under standard conditions of humidity, temperature and a controlled 12 h light and dark cycle and had free access to food and water. The sensorimotor rotarod test was carried out 10, 30 and 60 minutes after the injection. Mice were tested on a rotarod at 15 rpm for maximum 3 min and the time of fall was recorded. Falling before the 3 minutes period of testing assesses of locomotor coordination impairment induced by the compound.
Mice (N=10/group) received a single administration via oral gavage of test compound (40 mg/kg), diazepam (5 mg/kg), or vehicle (2% polyethylene glycol, 2.5% hydroxypropylmethyl cellulose solution).

[2] = Pharmacokinetics in mice (plasma, liver, brain); conditions: for concentration at 20 min: C57/BL6, mouse, ip, 10 mg/kg
[3] = tested on: mice; test: Home cage locomotor activity in mice; type: in vivo, mouse; conditions: vs vehicle
Method: Mice were placed in a clean cage, similar to their home-cage (28.2×17.1 cm), without bedding and lid to allow video recording from the top. Tacking was performed and distance travelled (30 min session) was analyzed using ANY-Maze™ tracking software (version 499z) to assess the locomotor activity in a home-cage environment. Animals received a single dose of compound or vehicle solution 1 hour before testing.
Drug preparation and administration: All drugs were diluted in a vehicle solution containing 85% H2O, 14% propylene glycol (Sigma Aldrich) and 1% Tween 80 (Sigma Aldrich). Working solutions were prepared at a concentration of 20 mg/mL and administered i.p. adjusted to the body weight of each animal. Doses used were either 1, 5 or 10 mg/kg. For all locomotor activity experiments, animals were acutely injected i.p. with vehicle or αPAM, 1 hour before the beginning of the test.

[4] = tested on: 18 months-old mice; test: Y-maze alternation task, old mice; type: in vivo, mouse; conditions: 5 mg/kg i.p. 30 min before testing
Method: C57/B16 male mice males were ordered from Jackson Laboratories at 10 months-old and were kept in normal housing conditions (12 h light ON cycle starting at 7 am/water and food ad libitum) until they reached the age of 18 months. A younger cohort of 8 week old animals was used as controls for the experiment. Before testing animals were handled to reduce the anxiety-like response toward the experimenter. Normal aging induced-working memory deficits were assessed using the Y-maze test as described below.
Mice were first habituated to the Y-maze apparatus and distal cues during 2 consecutive days over a 10 min free exploration session (one session per day). The next day, animals performed a training session consisting in seven successive trials separated by a 30 s inter-trial interval (ITI); during this training session, mice were familiarized with the experimental procedure (opening and closing of the doors and confinement into the goal arms). […] Then, the door was opened and the mouse was allowed to enter freely one of the two goal arms; the chosen arm was closed and the choice was recorded. […]
The same general procedure used in the training session was implemented 24 h later, except that the ITI was lengthened to 90 s. […] The mean alternation rate was calculated and was expressed in percentage (number of alternation done by the animal/total number of alternation possible×100)±SEM. […]

[5] = tested on: rats; test: Social novelty discrimination (SND); type: in vivo, rat; conditions: 10 mg/kg
Method: The SND test compares the social investigation times of an adult rat with a familiar and a novel juvenile rat. Testing consisted of two consecutive juvenile presentations periods to an adult subject: period 1 (P1) and period 2 (P2). At the beginning of P1, one juvenile was placed into the adult home cage and the time spent by the adult investigating the juvenile (anogenital sniffing, licking, close pursuing and pawing) was recorded manually for 5 min. During P2, the same juvenile and a second, novel juvenile were placed in the cage together with the adult, and the times spent by the adult investigating each juvenile were measured independently for 3 min. A different pair of juvenile rats was presented to each adult tested. Manual scoring was conducted in a blinded manner. SND was deliberately impaired in control rats by the parametric manipulation applied, as there was 30 min delay between P1 and P2, and their SND was expected to be low. The influence of MP-III-022 (1, 2.5 or 10 mg/kg) on the thus induced impairment in SND was examined. There were five groups of rats which received one of the following treatments 20 min before P1: solvent, 1.5 mg/kg diazepam and 1, 2.5 and 10 mg/kg MP-III-022. The amount of time investigating familiar (Tf) and novel (Tn) juvenile during P2 was manually scored, and discrimination indexes (Tn−Tf/Tn+Tf) was calculated. Total exploration time during P1 and P2 was also manually recorded.

[6] = 1 mg/kg i.p. 60 min before testing
[7] = 5 mg/kg i.p. 60 min before testing
[8] = 10 mg/kg i.p. 60 min before testing

Row | SMILES | sensorimotor impairment on rotarod (time of fall) [1] | locomotor activity (distance travelled, 30 min session) [3, 6] | locomotor activity (distance travelled, 30 min session) [3, 7] | locomotor activity (distance travelled, 30 min session) [3, 8] | molar concentration range reached in mouse brain tissue ([2]; 10 mg/kg dose i.p.) | effect on age-induced working memory impairment (percent alternation rate, Y-maze) [4] | further results
1 | C#Cc1ccc2c(c1)C(c1ccccc1F)=N[C@@H](C)c1c(C(=O)N(C)C)ncn1-2 [GL-I-54, (S)-8-ethynyl-6-(2-fluorophenyl)-N,N,4-trimethyl-4H-benzo[f]imidazo[1,5-a][1,4]diazepine-3-carboxamide] | most severe motor impairment |  |  |  |  |  | molar concentration range reached in mouse brain tissue ([2]; i.p. dosing at 3 mg/kg): high submicromolar to low micromolar values
2 | C#Cc1ccc2c(c1)C(c1ccccc1F)=N[C@H](C)c1c(C(=O)NCC)ncn1-2 [GL-II-74, (R)—N-ethyl-8-ethynyl-6-(2-fluorophenyl)-4-methyl-4H-benzo[f]imidazo[1,5-a][1,4]diazepine-3-carboxamide] | no sensorimotor impairment | no significant effect; also recorded: no effect on locomotor activity | no significant effect; also recorded: no effect on locomotor activity | significant increase in locomotion; also recorded: significant increase in distance traveled | micromolar range |  | 
3 | C#Cc1ccc2c(c1)C(c1ccccc1F)=N[C@H](C)c1c(C(=O)NC3CC3)ncn1-2 [GL-II-75, (R)—N-cyclopropyl-8-ethynyl-6-(2-fluorophenyl)-4-methyl-4H-benzo[f]imidazo[1,5-a][1,4]diazepine-3-carboxamide] |  | significant increase in locomotion; also recorded: significant increase in distance traveled | no significant effect; also recorded: no effect on locomotor activity | significant increase in locomotion; also recorded: significant increase in distance traveled | micromolar range | significant reversal of age-induced impairment in working memory; also recorded: significant pro-cognitive effect | 
4 | C#Cc1ccc2c(c1)C(c1ccccc1F)=N[C@H](C)c1c(C(=O)N(C)C)ncn1-2 [GL-II-73, (R)-8-ethynyl-6-(2-fluorophenyl)-N,N,4-trimethyl-4H-benzo[f]imidazo[1,5-a][1,4]diazepine-3-carboxam] | no sensorimotor impairment | no significant effect; also recorded: no effect on locomotor activity | significant increase in locomotion; also recorded: significant increase in distance traveled | significant increase in locomotion; also recorded: significant increase in distance traveled | micromolar range | significant reversal of age-induced impairment in working memory; also recorded: significant pro-cognitive effect | 
5 | C#Cc1ccc2c(c1)C(c1ccccc1F)=N[C@H](C)c1c(C(=O)NC)ncn1-2 [MP-III-022] |  |  |  |  |  |  | locomotor activity (distance travelled, 30 min session) ([3]; i.p. 60 min before testing, dose not given): no significant difference; also recorded: no effect; discrimination index (social novelty discrimination) ([5]; 20 min before P1, one-sample t-test vs zero): significant differences from zero; time exploring the familiar and the novel juvenile rat during P2 ([5]; 20 min before P1, paired t-test): spent significantly more time in exploring the new rat
6 | C#Cc1ccc2c(c1)C(c1ccccc1F)=N[C@H](C)c1c(C(=O)N3CCCC3)ncn1-2 [GL-II-76, (R)-(8-ethynyl-6-(2-fluorophenyl)-4-methyl-4H-benzo[f]imidazo[1,5-a][1,4]diazepin-3-yl)(pyrrolidin-1-yl)methanone] | no sensorimotor impairment |  |  |  |  |  | concentration at 20 min ([2]; brain): 204 ± 101 ng/g; concentration at 20 min ([2]; liver): 4360 ng/g; concentration at 20 min ([2]; plasma): 605 ± 198 ng/mL; brain penetrance ([2]; mice and rats): brain-penetrant at the exception of GI-II-76; brain concentrations, suitability for CNS-active drug ([2]; pilot cassette study, mice and rats): suboptimal
